Values of other authors, collected in patent publication US7939721B2, “Cropping systems for managing weeds” (Monsanto Technology LLC, priority 2006, dated 2011).
Like-named read-outs stand apart in the source and are kept apart here.

System: soybean plants transformed with dicamba monooxygenase (DMO)-encoding polynucleotide constructs
Conditions: cited from earlier work

Which results are given for `COc1c(Cl)ccc(Cl)c1C(=O)O` [dicamba, 3,6-dichloro-o-anisic acid]?
injury (18× application rate of 10,080 g/ha (9 lb/acre)): less than 20%; injury (approximately 2× rate of application of 1122 g/ha): less than 2%; injury (early pre-emergence application, 9× the labeled application rate (5,040 g/ha, 4.5 lb/acre)): less than 10%
